A short description of data set [1]: Plasma concentration in HLA-B27 rat at 100 mg/kg, po bid administered for 11 days measured 12 hrs post last dose. Type of data set: ADME, organism-based. Details: dose 100 mg/kg, route oral.
The next data set has as its system Cavia porcellus. The experiment in a line: Reduction on allergenic encephalomyelitis guinea pig EAE model at 300 mg/kg, po bid. Also noted: dose 300 mg/kg. The format is functional, organism-based.
In data set [2] the test system is Liver microsomes. The experiment in a line: Drug metabolism in human liver microsomes assessed as (S)-2-(2-(ethylamino)-5-(N-isopropylmethylsulfonamido)pyrimidin-4-ylamino)-3-(4-(pyrrolidine-1-carbonyloxy)phenyl)propanoic acid synthesis. The format is ADME, Microsome. In general terms: Microsomes from liver hold many membrane-bound enzymes, among them those of drug oxidation.

Data set [3] relates to Liver microsomes. The experiment in a line: Drug metabolism in rat liver microsomes assessed as (S)-2-(2-(ethylamino)-5-(N-isopropylmethylsulfonamido)pyrimidin-4-ylamino)-3-(4-(pyrrolidine-1-carbonyloxy)phenyl)propanoic acid synthesis. The format is ADME, Microsome.
A short description of data set [4]: Plasma concentration in rat at 1000 mg/kg, po administered for 10 days measured 24 hrs post last dose. Type of data set: ADME, organism-based. Details: dose 1000 mg/kg, route oral.
Data set [5] in a line: Plasma concentration in rat at 300 mg/kg, po administered for 10 days measured 24 hrs post last dose. Also noted: dose 300 mg/kg, route oral. Type of data set: ADME, organism-based.
Data set [6] can be described thus: Plasma concentration in rat at 100 mg/kg, po administered for 10 days measured 24 hrs post last dose. Also noted: dose 100 mg/kg, route oral. The format is ADME, organism-based.
Data set [7] can be described thus: Plasma concentration in rat at 30 mg/kg, po administered for 10 days measured 24 hrs post last dose. The format is ADME, organism-based. Details: dose 30 mg/kg, route oral.
The test system of another data set is Rattus norvegicus. The experiment in a line: Toxicity in rat assessed as weight gain at 1 to 1000 mg/kg, po after 10 days. Type of data set: organism-based. Also noted: dose 1-1000 mg/kg, route oral. To be noted: in vivo, 240 h.
Data set [8] is described as follows: Plasma concentration in rat at 10 mg/kg, po administered for 10 days measured 24 hrs post last dose. The format is ADME, organism-based. Also noted: dose 10 mg/kg, route oral.
The nature of data set [9]: Plasma concentration in rat at 1000 mg/kg, po after 24 hrs. The format is ADME, organism-based. Details: dose 1000 mg/kg, route oral.
Data set [10] is described as follows: Plasma concentration in rat at 100 mg/kg, po after 24 hrs. Type of data set: ADME, organism-based. Details: dose 100 mg/kg, route oral.
Data set [11] is described as follows: Plasma concentration in rat at 300 mg/kg, po after 24 hrs. Type of data set: ADME, organism-based. Details: dose 300 mg/kg, route oral.
Data set [12] is described as follows: Plasma concentration in rat at 30 mg/kg, po after 24 hrs. The format is ADME, organism-based. Also noted: dose 30 mg/kg, route oral.
Data set [13] in a line: Plasma concentration in rat at 10 mg/kg, po after 24 hrs. Type of data set: ADME, organism-based. Also noted: dose 10 mg/kg, route oral.
Data set [14] can be described thus: Plasma concentration in rat at 3 mg/kg, po after 24 hrs. Type of data set: ADME, organism-based. Also noted: dose 3 mg/kg, route oral.
The nature of data set [15]: AUC (0 to infinity) in rat at 1000 mg/kg, po. Conditions: plasma. Details: time infinity, dose 1000 mg/kg, route oral. Type of data set: ADME, organism-based.
Data set [16] can be described thus: AUC (0 to infinity) in rat at 300 mg/kg, po. The format is ADME, organism-based. Also noted: time infinity, dose 300 mg/kg, route oral. To be noted: plasma.
The nature of data set [17]: AUC (0 to infinity) in rat at 30 mg/kg, po. Type of data set: ADME, organism-based. Details: time infinity, dose 30 mg/kg, route oral. To be noted: plasma.
The nature of data set [18]: AUC (0 to infinity) in rat at 100 mg/kg, po. Conditions: plasma. The format is ADME, organism-based. Also noted: time infinity, dose 100 mg/kg, route oral.
The nature of data set [19]: AUC (0 to infinity) in rat at 10 mg/kg, po. The format is ADME, organism-based. Also noted: time infinity, dose 10 mg/kg, route oral. To be noted: plasma.
Data set [20] can be described thus: AUC (0 to infinity) in rat at 3 mg/kg, po. Type of data set: ADME, organism-based. Details: time infinity, dose 3 mg/kg, route oral. To be noted: plasma.
Data set [21] is described as follows: Cmax in rat at 1000 mg/kg, po. Type of data set: ADME, organism-based. Details: dose 1000 mg/kg, route oral. To be noted: in vivo.
Data set [22] can be described thus: AUC (0 to infinity) in rat at 1 mg/kg, po. Conditions: plasma. The format is ADME, organism-based. Also noted: time infinity, dose 1 mg/kg, route oral.
Data set [23] in a line: Cmax in rat at 300 mg/kg, po. Type of data set: ADME, organism-based. Details: dose 300 mg/kg, route oral. Conditions: in vivo.
The nature of data set [24]: Cmax in rat at 30 mg/kg, po. Conditions: in vivo. Type of data set: ADME, organism-based. Details: dose 30 mg/kg, route oral.
Data set [25] in a line: Cmax in rat at 100 mg/kg, po. Type of data set: ADME, organism-based. Conditions: in vivo. Also noted: dose 100 mg/kg, route oral.
A short description of data set [26]: Cmax in rat at 3 mg/kg, po. Type of data set: ADME, organism-based. Also noted: dose 3 mg/kg, route oral. Conditions: in vivo.
A short description of data set [27]: Cmax in rat at 10 mg/kg, po. The format is ADME, organism-based. Also noted: dose 10 mg/kg, route oral. Conditions: in vivo.
The nature of data set [28]: Volume of distribution at steady state in iv dosed rat. The format is ADME, organism-based. Conditions: in vivo, read-out: Vdss.
A short description of data set [29]: Oral bioavailability in rat. To be noted: in vivo. The format is ADME, organism-based.
The nature of data set [30]: Cmax in rat at 1 mg/kg, po. The format is ADME, organism-based. Also noted: dose 1 mg/kg, route oral. To be noted: in vivo.
A short description of data set [31]: Apparent volume of distribution in iv dosed rat. Type of data set: ADME, organism-based. To be noted: in vivo, read-out: Vz.
Data set [32] in a line: Clearance in iv dosed rat. Conditions: in vivo. The format is ADME, organism-based.
Data set [33] in a line: Half life in iv dosed rat. The format is ADME, organism-based. Conditions: in vivo.
Data set [34] in a line: AUC (0 to infinity) in po dosed rat. Type of data set: ADME, organism-based. Details: route oral, time infinity. To be noted: plasma.
Data set [35] can be described thus: Cmax in po dosed rat. The format is ADME, organism-based. Also noted: route oral. Conditions: in vivo.
The nature of data set [36]: Plasma concentration in rat at 1 mg/kg, po after 24 hrs. The format is ADME, organism-based. Also noted: dose 1 mg/kg, route oral.
The target of data set [37] is T1, Integrin alpha-4/beta-1 (Homo sapiens, UniProt P05556+P13612). Kind of data set: Inhibition of alpha4beta1 integrin-mediated human jurkat cell adhesion to fibronectin in absence of human serum albumin. Type of data set: protein-complex assay.
T1 sequence (P05556 whole entry): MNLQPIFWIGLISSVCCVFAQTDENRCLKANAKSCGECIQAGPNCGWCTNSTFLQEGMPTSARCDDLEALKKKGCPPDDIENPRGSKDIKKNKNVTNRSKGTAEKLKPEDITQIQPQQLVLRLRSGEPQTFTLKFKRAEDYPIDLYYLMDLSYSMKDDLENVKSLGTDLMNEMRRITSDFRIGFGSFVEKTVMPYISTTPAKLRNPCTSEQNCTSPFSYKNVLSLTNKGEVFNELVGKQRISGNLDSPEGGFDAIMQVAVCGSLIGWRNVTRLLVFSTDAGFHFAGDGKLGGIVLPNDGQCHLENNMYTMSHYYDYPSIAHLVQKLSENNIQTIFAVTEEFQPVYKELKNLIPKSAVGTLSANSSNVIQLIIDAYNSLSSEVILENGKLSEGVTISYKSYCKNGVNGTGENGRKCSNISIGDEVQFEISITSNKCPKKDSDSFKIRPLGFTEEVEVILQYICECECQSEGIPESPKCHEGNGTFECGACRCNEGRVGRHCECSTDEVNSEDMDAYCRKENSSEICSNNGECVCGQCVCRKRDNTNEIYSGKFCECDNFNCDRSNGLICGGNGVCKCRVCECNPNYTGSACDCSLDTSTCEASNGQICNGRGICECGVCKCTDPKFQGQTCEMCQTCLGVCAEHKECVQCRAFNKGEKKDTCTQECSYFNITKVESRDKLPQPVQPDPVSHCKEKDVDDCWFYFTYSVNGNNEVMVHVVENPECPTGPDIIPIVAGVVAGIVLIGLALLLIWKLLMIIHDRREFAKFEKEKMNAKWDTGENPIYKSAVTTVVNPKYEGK
T1 sequence (P13612 whole entry): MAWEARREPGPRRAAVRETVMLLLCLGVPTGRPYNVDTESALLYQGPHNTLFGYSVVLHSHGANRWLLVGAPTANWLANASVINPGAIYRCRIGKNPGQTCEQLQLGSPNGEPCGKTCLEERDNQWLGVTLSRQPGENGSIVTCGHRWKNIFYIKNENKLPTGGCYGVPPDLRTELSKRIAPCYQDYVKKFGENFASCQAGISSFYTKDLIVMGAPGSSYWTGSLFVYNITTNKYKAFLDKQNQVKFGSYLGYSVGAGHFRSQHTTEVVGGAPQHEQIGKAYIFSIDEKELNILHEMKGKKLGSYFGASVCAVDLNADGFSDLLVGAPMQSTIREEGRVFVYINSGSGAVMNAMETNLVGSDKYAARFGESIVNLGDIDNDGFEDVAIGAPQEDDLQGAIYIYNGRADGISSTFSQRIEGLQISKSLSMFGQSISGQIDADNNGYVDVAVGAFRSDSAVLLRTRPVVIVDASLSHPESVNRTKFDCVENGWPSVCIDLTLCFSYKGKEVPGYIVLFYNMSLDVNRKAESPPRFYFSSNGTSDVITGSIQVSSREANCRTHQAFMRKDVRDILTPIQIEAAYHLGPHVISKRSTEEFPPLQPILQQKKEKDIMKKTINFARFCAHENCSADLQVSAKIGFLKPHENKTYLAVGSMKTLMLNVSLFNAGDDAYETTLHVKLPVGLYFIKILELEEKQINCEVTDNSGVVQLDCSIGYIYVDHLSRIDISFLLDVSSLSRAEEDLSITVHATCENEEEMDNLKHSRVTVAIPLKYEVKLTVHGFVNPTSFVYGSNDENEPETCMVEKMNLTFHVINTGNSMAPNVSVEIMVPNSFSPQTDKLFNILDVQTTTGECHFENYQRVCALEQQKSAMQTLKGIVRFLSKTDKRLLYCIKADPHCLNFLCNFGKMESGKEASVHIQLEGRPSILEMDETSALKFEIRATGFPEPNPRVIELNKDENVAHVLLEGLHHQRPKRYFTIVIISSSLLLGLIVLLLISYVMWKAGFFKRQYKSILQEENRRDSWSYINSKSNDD
Data set [38] deals with T1, Integrin alpha-4/beta-1. Kind of data set: Inhibition of alpha4beta1 integrin-mediated human jurkat cell adhesion to fibronectin in presence of human serum albumin. The format is protein-complex assay.

Calls of active or inactive are those of the source. No cut-off for these calls is given here.

In general, AUC(0-inf) refers to the area under the concentration-time curve extrapolated to infinity. Low readings indicate low exposure, high ones high exposure. As usually defined, the Cmax is the highest concentration seen after dosing. Usually bioavailability stands for dose-corrected exposure relative to a reference, in per cent. Read a low bioavailability as poor availability. Broadly, the clearance is the volume of plasma or blood freed of the substance per unit of time. As usually defined, the half-life is how long it takes for the measured level to halve. A low value points to fast loss. `CCN(CC)c1ncc(N(C(C)C)S(C)(=O)=O)c(N[C@@H](Cc2ccc(OC(=O)N3CCCC3)cc2)C(=O)O)n1`: the concentration at 12 h in [1] is 2500 ng/mL. Also, the result with Cavia porcellus was inactive. Moreover, the Drug metabolism result in the data set with Liver microsomes [2] and in the data set with Liver microsomes [3] was “Active” each time. In addition, the concentration at 24 h in data set [4] came out at 100000 ng/mL; in data set [5] it was 43100 ng/mL; in data set [6], 28500 ng/mL; in data set [7], 13000 ng/mL; in data set [8] it was 3380 ng/mL; in data set [9] it was 71400 ng/mL. Besides, the concentration at 24 h in data set [10] came out at 13600 ng/mL; in [11], 46200 ng/mL; in data set [12], 4250 ng/mL; in data set [13], 1010 ng/mL; in [14] it was 358 ng/mL; in data set [36] it was 110 ng/mL. Also, the Activity result in the data set with Rattus norvegicus is listed as “Non-toxic”. Further, the total exposure AUC(0-inf) in data set [15] came out at 4480 µg·h/mL; in data set [16], 2980 µg·h/mL; in data set [17], 275 µg·h/mL; in data set [18] it was 1260 µg·h/mL; in [19] it was 76 µg·h/mL; in data set [20], 24.2 µg·h/mL. The AUC(0-inf) in data set [22] is 5.9 µg·h/mL; in data set [34], 221 µg·h/mL. For the same compound, the Cmax in [21] is 214000 ng/mL; in data set [23], 153000 ng/mL; in data set [24], 17400 ng/mL; in data set [25], 105000 ng/mL; in data set [26], 1100 ng/mL; in data set [27], 3600 ng/mL. Besides, the Cmax is 230 ng/mL in data set [30] and 16500 ng/mL in data set [35]. The Vd in data set [28] was found to be 0.068 L/kg; in data set [31], 0.108 L/kg. This compound also showed a bioavailability in data set [29] of 17%. The compound further showed a clearance in data set [32] of 0.172 mL/min/kg. Also, in data set [33], the half-life is 7.3 h.
For orientation: IC50 means the midpoint of a concentration-inhibition curve. Turning to `CCNc1ncc(N(C(C)C)S(C)(=O)=O)c(N[C@@H](Cc2ccc(OC(=O)N3CCCC3)cc2)C(=O)O)n1`, the area under the curve AUC(0-inf) in data set [34] turned out to be 6.8 µg·h/mL. Moreover, the concentration in data set [35] peaked (Cmax) at 1400 ng/mL. The IC50 at Integrin alpha-4/beta-1 [37] was 23.3 nM; at Integrin alpha-4/beta-1 [38], 4820 nM.

These data come from ChEMBL document CHEMBL2406934, “Orally available and efficacious α4β1/α4β7 integrin inhibitors” (Bioorg Med Chem Lett, 2013).
